Assay results from patent EP0321967A2, “Compounds active on the cardiovascular system” (ZAMBON GROUP S.p.A., priority 1987, dated 1989).

Columns and labels:
[1] = tested on: spontaneously hypertensive rat; assay: Systemic arterial pressure decrease after intravenous administration in spontaneously hypertensive rat; type: in vivo; settings: in comparison with the basal value
Source text: The compounds object of the present invention after administration by intravenous route in spontaneously hypertensive rat at the dose of 0.033-0.53 µm/kg induce a meaningful systemic arterial pressure decrease comprised between 20 and 90 mmHg.

D₂ receptor = target: T1, D₂ receptor (Rattus norvegicus, UniProt P61169); assay: Dopaminergic activity: receptor binding on isolated membranes of rat striated muscle, D2; settings: read-out: IC₅₀
T1 construct: from tissue; host or cells: isolated membranes of rat striated muscle (so in the source); probably striatum is meant
Procedure: (§1) The dopaminergic activity of compound A, for example, has been evaluated as percentage of receptor binding on isolated membranes of rat striated muscle; the IC₅₀ resulted to be 0.3 µM for D₂ receptor and 3 µM for D₁ receptor.

α₁ = assay: α1-antagonistic effect on phenylephrine-induced vasoconstriction of rabbit isolated aorta; type: cell-based; settings: antagonism of vasoconstriction induced by phenylephrine (α₁-agonist)
Source text: The α₁-antagonistic effect has been evaluated as antagonistic effect (pA₂) on vasoconstriction induced by phenylephrine (α₁-agonist) on rabbit isolated aorta. For compound A the obtained pA₂ value was 7.7.

D₁ receptor = target: T2, D₁ receptor (Rattus norvegicus, UniProt P18901); assay: Dopaminergic activity: receptor binding on isolated membranes of rat striated muscle, D1; settings: read-out: IC₅₀
T2 construct: from tissue; host or cells: isolated membranes of rat striated muscle (so in the source); probably striatum is meant
Procedure: as §1

T1 sequence (P61169 whole entry): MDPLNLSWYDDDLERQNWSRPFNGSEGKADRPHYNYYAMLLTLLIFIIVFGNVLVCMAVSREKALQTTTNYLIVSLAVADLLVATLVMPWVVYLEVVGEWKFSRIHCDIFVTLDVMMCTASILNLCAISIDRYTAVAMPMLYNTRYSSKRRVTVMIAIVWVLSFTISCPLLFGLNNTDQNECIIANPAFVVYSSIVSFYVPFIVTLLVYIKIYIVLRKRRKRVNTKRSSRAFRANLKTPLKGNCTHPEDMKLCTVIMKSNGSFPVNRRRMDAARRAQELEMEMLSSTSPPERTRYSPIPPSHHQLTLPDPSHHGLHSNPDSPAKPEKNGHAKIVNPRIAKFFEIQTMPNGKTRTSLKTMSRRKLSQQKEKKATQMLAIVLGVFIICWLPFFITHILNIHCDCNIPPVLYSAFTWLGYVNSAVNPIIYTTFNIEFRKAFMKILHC
T2 sequence (P18901 whole entry): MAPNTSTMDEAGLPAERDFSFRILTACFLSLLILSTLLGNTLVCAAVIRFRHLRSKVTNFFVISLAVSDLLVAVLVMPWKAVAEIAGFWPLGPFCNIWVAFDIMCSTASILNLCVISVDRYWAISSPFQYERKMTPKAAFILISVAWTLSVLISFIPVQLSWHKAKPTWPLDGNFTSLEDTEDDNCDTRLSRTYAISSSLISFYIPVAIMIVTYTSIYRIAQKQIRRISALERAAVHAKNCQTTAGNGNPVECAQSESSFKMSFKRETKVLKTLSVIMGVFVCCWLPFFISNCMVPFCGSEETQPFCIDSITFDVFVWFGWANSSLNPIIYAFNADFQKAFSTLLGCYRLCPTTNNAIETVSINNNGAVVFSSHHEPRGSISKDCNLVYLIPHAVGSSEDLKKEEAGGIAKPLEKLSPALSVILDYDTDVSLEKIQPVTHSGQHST

IC50 (D₂ receptor): 0.3 µM | IC50 (D₁ receptor): 3 µM
Structure (SMILES): CCCN(CCOc1ccccc1OC)CCc1ccc(O)c(O)c1.Cl [compound A, N-[2-(2-methoxyphenoxy)ethyl]-N-propyl-dopamine hydrochloride]
reduction of systemic arterial pressure ([1]; dose 12.5 µg/kg): 51 mmHg | reduction of systemic arterial pressure ([1]; dose 200 µg/kg): 89 mmHg | pA₂ (α₁): 7.7
